Data: US11247965B2 (VenatoRx Pharmaceuticals, Inc., priority 2017, dated 2022)
Read-outs that look alike come from different tables or passages of the source.

Tests used:
[1] = In vitro cytotoxicity, MTT cell viability assay in HepG2 cells; type: cell-based; conditions: human
Procedure: To evaluate antiviral selectivity, the cytotoxic activity of each compound was determined using a standard cell viability assay performed on the parental HepG2 cell line. Cell viability was determined by measuring the conversion of 3-(4,5-dimethylthiazol-2-yl)-2,5-diphenyltetrazolium bromide (MTT) to the insoluble formazan salt crystal that occurs in live cells. Briefly, HepG2 cells were seeded in 96-well plates at a density of 20,000 cells per well in EMEM+10% FBS (complete growth medium) and allowed to adhere overnight in a 37° C., 5% CO2 humidified incubator. The next day, test agents were prepared by performing 8 half-log10 serial dilutions in 100% DMSO at 200× the final desired concentration in the assay. Compounds were tested over a range of concentrations from 30 μM to 1.0 nM in the assay. HepG2 cells were incubated in the presence of various concentrations of CAMs for 7 days in a 37° C., 5% CO2 humidified incubator. At the completion of the 7-day incubation period, MTT reagent was added to each well and the mixture was incubated for an additional 3-4 hours. At the completion of the incubation period, all wells were aspirated to remove the culture medium. The formazan crystals were solubilized from the cell monolayers with 100% DMSO. Plates were briefly mixed on an orbital shaker and absorbance was measured at 492 nm using a Perkin-Elmer EnVision multi-label plate reader. All absorbance values were converted to a percentage of the signal obtained from the vehicle treated controls. Absorbance values at 492 nm are directly proportional to the number of viable cells present in the sample. A CC50 value (cytotoxic concentration that results in loss of 50% cell viability) was calculated from the dose-response curve by 4-parameter, non-linear regression analysis using the GraphPad Prism software. The positive control compound, staurosporine, reduced the viability of HepG2 cells in a dose-dependent manner (CC50=100 nM).

[2] = tested on: HBV replication in HepAD38 cells; assay: Anti-HBV activity in HepAD38 cells, extracellular HBV DNA by QPCR; type: cell-based, HBV (genotype D, serotype ayw); conditions: Hepatitis B virus, HePAD38, 168 h
Procedure: The anti-HBV activity of the Capsid Assembly Modulators (CAMs) was evaluated in a cell based assay utilizing the human hepatoma cell line HepAD38 (Ladner, S K., et al., 1998). HepAD38 cells were derived from the parental line, HepG2, that were stably transfected with a construct containing an HBV genome (genotype D, serotype ayw) under the control of a tetracycline repressible CMV promoter. Upon removal of tetracycline, viral pre-genomic RNA (pgRNA) and mRNAs are expressed and infectious viral particles are assembled and secreted into the culture medium providing a reliable, robust system to measure multiple steps of the HBV life cycle. Disruption of capsid formation results in reduced levels of DNA-containing virus particles that are released into the culture supernatant. To quantify the effect of CAMs on HBV replication, we developed a sensitive QPCR-based assay that measures extracellular HBV DNA levels upon treatment of HepAD38 cells with various concentrations of test compounds.
HepAD38 cells were maintained in DMEM/F12 medium containing 10% FBS, 400 μg/mL G418 and 0.3 μg/mL tetracycline (tet+medium) to maintain repression of HBV replication. To evaluate each compound, HepAD38 cells were seeded into 24-well collagen coated culture plates (Corning BioCoat) at a density of 200,000 cells per well in 1 mL of tet+medium and allowed to adhere overnight at 37° C., 5% CO2 in a humidified incubator. The following day, test articles were subjected to half-logo serial dilutions, ranging from 30 μM to 10 nM, in 100% DMSO at 200× the desired final assay concentration. Tetracycline was removed from the cells by aspirating the tet+medium and washing the cells once with growth medium lacking tetracycline (tet-). Various concentrations of each compound were added to the appropriate wells (1:200 dilution) and the plates were returned to the incubator. Following 7 days of incubation, culture supernatants were harvested and HBV DNA levels were evaluated by QPCR and compared to the vehicle treated control wells (i.e. DMSO alone).
To quantify HBV DNA levels, cell culture supernatants were diluted 1:10 in sterile, nuclease-free water (Gibco). The diluted supernatants were subsequently added to a PCR master mix containing 1× Roche Light Cycler Master Mix, 0.5 μM forward primer, 0.5 μM reverse primer (Fwd:
0.2 μM Roche Universal Probe Library Probe 25. The volume was brought to 20 μL with nuclease-free water and amplification of the HBV target sequence was performed using a Roche LightCycler 480 QPCR instrument. PCR extended out to 45 cycles with each cycle consisting of a denaturation step at 95° C. for 10 sec., followed by an annealing step at 60° C. for 10 sec. and a brief extension step at 72° C. for 1 sec.
Extracellular HBV DNA levels, expressed in copies/mL, were determined by comparison to a standard curve (10^2-10^9 copies/mL) using the Roche LightCycler analysis software. These values were subsequently converted to percent inhibition of HBV replication by dividing the HBV DNA levels in the experimental samples with those obtained from the vehicle control (˜1-2×10^5 copies/mL). Potency, expressed as an EC50 (the effective concentration required to inhibit […] of HBV replication), was calculated from the dose-response curve using a 4-parameter non-linear regression analysis (GraphPad Prism). The nucleoside analog inhibitor entecavir was used as a positive control to validate each assay run. The EC50 value of entecavir in the HepAD38 assay was 0.5 nM, as previously reported in the literature.

[3] = read-out: Anti-HBV EC50, HepAD38 cells, extracellular HBV DNA by QPCR, 7 days of incubation

Structure (SMILES) | CC50 at 7 days ([1]; Cytotoxicity CC50) | EC50 [2, 3] | CC50 at 7 days ([1]; positive control, HepG2 cells, 7 days incubation, MTT, read-out: CC50, viability of HepG2 cells) | EC50 ([2]; positive control, HepAD38 cells, 7 days incubation, extracellular HBV DNA, read-out: EC50 in the HepAD38 assay)
CC(C)n1cc(NC(=O)c2ccc(F)c(C(F)(F)C(=O)N3CCC(O)C(F)(F)C3)c2)cn1 (stereo not drawn) [Example 183, 3-(2-(3,3-difluoro-4-hydroxypiperidin-1-yl)-1,1-difluoro-2-oxoethyl)-4-fluoro-N-(1-isopropyl-1H-pyrazol-4-yl)benzamide] | > 30 µM | 5 to 30 µM |  | 
O=C(Nc1ccc(F)c(F)c1)c1ccc(F)c(C(F)(F)C(=O)NC2CCCC2)c1 [Example 20, 3-(2-(cyclopentylamino)-1,1-difluoro-2-oxoethyl)-N-(3,4-difluorophenyl)-4-fluorobenzamide] | 5 to 30 µM | 5 to 30 µM |  | 
CC(C)NC(=O)C(F)(F)c1cc(C(=O)Nc2ccc(F)c(F)c2)ccc1F [Example 7, 3-(1,1-difluoro-2-(isopropylamino)-2-oxoethyl)-N-(3,4-difluorophenyl)-4-fluorobenzamide] | 5 to 30 µM | 5 to 30 µM |  | 
COC(=O)N[C@@H]1C[C@H]2COC[C@@H](C1)N2C(=O)C(F)(F)c1cc(C(=O)Nc2ccc(F)c(C)c2)ccc1F [Example 307, methyl ((1R,5S,7r)-9-(2,2-difluoro-2-(2-fluoro-5-((4-fluoro-3-methylphenyl)carbamoyl)phenyl)acetyl)-3-oxa-9-azabicyclo[3.3.1]nonan-7-yl)carbamate] | 5 to 30 µM | < 5 µM |  | 
N#Cc1cc(NC(=O)c2ccc(F)c(C(F)(F)C(=O)N3[C@@H]4CC[C@H]3C[C@H](O)C4)c2)ccc1F [Example 193, N-(3-cyano-4-fluorophenyl)-3-(1,1-difluoro-2-((1R,3s,5S)-3-hydroxy-8-azabicyclo[3.2.1]octan-8-yl)-2-oxoethyl)-4-fluorobenzamide] | 5 to 30 µM | < 5 µM |  | 
O=C(Nc1ccc(F)c(F)c1)c1ccc(F)c(C(F)(F)C(=O)NC[C@@H](O)CO)c1 [Example 53, (R)—N-(3,4-difluorophenyl)-3-(2-((2,3-dihydroxypropyl)amino)-1,1-difluoro-2-oxoethyl)-4-fluorobenzamide] | > 30 µM | < 5 µM |  | 
Cc1cc(NC(=O)c2ccc(F)c(C(F)(F)C(=O)N3CCc4[nH]cnc4C3)c2)ccc1F [Example 238, 3-(1,1-difluoro-2-oxo-2-(1,4,6,7-tetrahydro-5H-imidazo[4,5-c]pyridin-5-yl)ethyl)-4-fluoro-N-(4-fluoro-3-methylphenyl)benzamide] | > 30 µM | < 5 µM |  | 
Cc1cc(NC(=O)c2ccn(C)c2C(F)(F)C(=O)NC(C)C(F)(F)F)ccc1F (stereo not drawn) [Example 112, 2-(1,1-difluoro-2-oxo-2-((1,1,1-trifluoropropan-2-yl)amino)ethyl)-N-(4-fluoro-3-methylphenyl)-1-methyl-1H-pyrrole-3-carboxamide] | > 30 µM | > 30 µM |  | 
Cc1cc(NC(=O)c2ccc(F)c(C(F)(F)C(=O)N3[C@@H]4COC[C@H]3CN(S(C)(=O)=O)C4)c2)ccc1F [Example 211, 3-(1,1-difluoro-2-((1R,5S)-7-(methylsulfonyl)-3-oxa-7,9-diazabicyclo[3.3.1]nonan-9-yl)-2-oxoethyl)-4-fluoro-N-(4-fluoro-3-methylphenyl)benzamide] | > 30 µM | < 5 µM |  | 
COc1ccc(C(F)(F)C(=O)N2CCC(O)CC2)cc1C(=O)Nc1ccc(F)c(C)c1 [Example 91, 5-(1,1-difluoro-2-(4-hydroxypiperidin-1-yl)-2-oxoethyl)-N-(4-fluoro-3-methylphenyl)-2-methoxybenzamide] | > 30 µM | > 30 µM |  | 
Cc1cc(NC(=O)c2ccc(F)c(C(F)(F)C(=O)N3[C@@H]4CC[C@H]3C[C@@H](NC(=O)OC(C)(C)C)C4)c2)ccc1F [Example 225, tert-butyl ((1R,3r,5S)-8-(2,2-difluoro-2-(2-fluoro-5-((4-fluoro-3-methylphenyl)carbamoyl)phenyl)acetyl)-8-azabicyclo[3.2.1]octan-3-yl)carbamate] | 5 to 30 µM | < 5 µM |  | 
Cc1cc(NC(=O)c2ccnc(C(F)(F)C(=O)N3C4CC[C@@H]3C[C@@H](C(N)=O)C4)c2)ccc1F [Example 245, (1R,3s,5S)-8-(2,2-difluoro-2-(4-((4-fluoro-3-methylphenyl)carbamoyl)pyridin-2-yl)acetyl)-8-azabicyclo[3.2.1]octane-3-carboxamide] | > 30 µM | 5 to 30 µM |  | 
CC[C@@H](C)NC(=O)C(F)(F)c1c(C(=O)Nc2ccc(F)c(C)c2)ccn1C [Example 110, (R)-2-(2-(sec-butylamino)-1,1-difluoro-2-oxoethyl)-N-(4-fluoro-3-methylphenyl)-1-methyl-1H-pyrrole-3-carboxamide] | > 30 µM | > 30 µM |  | 
Cc1cc(NC(=O)c2ccc(F)c(C(F)(F)C(=O)N3[C@@H]4CCC[C@H]3C[C@H](NS(C)(=O)=O)C4)c2)ccc1F [Example 338, 3-(1,1-difluoro-2-((1R,3s,5S)-3-(methylsulfonamido)-9-azabicyclo[3.3.1]nonan-9-yl)-2-oxoethyl)-4-fluoro-N-(4-fluoro-3-methylphenyl)benzamide] | 5 to 30 µM | < 5 µM |  | 
Cn1cc(C(=O)Nc2ccc(F)c(Cl)c2)cc1C(F)(F)C(=O)NC(C)(C)C [Example 139, 5-(2-(tert-butylamino)-1,1-difluoro-2-oxoethyl)-N-(3-chloro-4-fluorophenyl)-1-methyl-1H-pyrrole-3-carboxamide] |  | < 5 µM |  | 
Cc1cc(NC(=O)c2ccc(F)c(C(F)(F)C(=O)N3[C@@H]4CC[C@H]3c3sc(N)nc3C4)c2)ccc1F [Example 313, 3-(2-((5R,8S)-2-amino-5,6,7,8-tetrahydro-4H-5,8-epiminocyclohepta[d]thiazol-9-yl)-1,1-difluoro-2-oxoethyl)-4-fluoro-N-(4-fluoro-3-methylphenyl)benzamide] |  | < 5 µM |  | 
CN[C@@H]1C[C@H]2O[C@@](C)([C@@H]1OC)n1c3ccccc3c3c4c(c5c6ccccc6n2c5c31)C(=O)NC4 [staurosporine, reference compound] |  |  | 0.1 µM | 
C=C1[C@H](CO)[C@@H](O)C[C@@H]1n1cnc2c(=O)[nH]c(N)nc21 [entecavir, reference compound] |  |  |  | 0.0005 µM
Cc1cc(NC(=O)c2ccc(F)c(C(F)(F)C(=O)N3CCn4c(cnc4C(F)(F)F)C3)c2)ccc1F [Example 312, 3-(1,1-difluoro-2-oxo-2-(3-(trifluoromethyl)-5,6-dihydroimidazo[1,5-a]pyrazin-7(8H)-yl)ethyl)-4-fluoro-N-(4-fluoro-3-methylphenyl)benzamide] |  | < 5 µM |  | 
